Results: ChEMBL document CHEMBL5046231, “Modulation of Naturally Occurring Linear Dipeptide Chirality to Reduce the Affinity for Oligopeptide Transporter 1 and Increase Intestinal Stability for an Enhanced Colon-Targeting Effect in the Treatment of Inflammatory Bowel Disease: An Application of trans-4-l-Hydroxyprolyl-l-serine” (J Med Chem, 2022)
Calls of active or inactive are those of the source. The rule behind the calls is not given here.

Key:
[1] = Chemical stability in 0.1 M HCl at pH 1.2 assessed as half life measured up to 12 hrs by HPLC analysis; type: physicochemical
[2] = Chemical stability in acetate buffer at pH 4.5 assessed as half life measured up to 12 hrs by HPLC analysis; type: physicochemical
[3] = Chemical stability in phosphate buffer at pH 6.8 assessed as half life measured up to 12 hrs by HPLC analysis; type: physicochemical
[4] = Chemical stability in phosphate buffer at pH 7.2 assessed as half life measured up to 12 hrs by HPLC analysis; type: physicochemical
[5] = Stability in simulated gastric fluid at pH 1.2 assessed as half life measured up to 12 hrs by HPLC analysis; type: ADME
[6] = Stability in simulated intestinal fluid at pH 6.8 assessed as half life measured up to 12 hrs by HPLC analysis; type: ADME
[7] = Metabolic stability in healthy C57BL/6 mouse jejunum assessed as half life measured up to 12 hrs by HPLC analysis; type: ADME, tissue-based
[8] = Metabolic stability in healthy C57BL/6 mouse colon assessed as half life measured up to 12 hrs by HPLC analysis; type: ADME, tissue-based
[9] = Metabolic stability in healthy C57BL/6 mouse colonic flora homogenate assessed as half life measured up to 12 hrs by HPLC analysis; type: ADME
[10] = Metabolic stability in healthy C57BL/6 mouse liver assessed as half life measured up to 12 hrs by HPLC analysis; type: ADME, tissue-based
[11] = Metabolic stability in healthy C57BL/6 mouse plasma assessed as half life measured up to 12 hrs by HPLC analysis; type: ADME, cell-free
[12] = Metabolic stability in DSS-induced C57BL/6 mouse jejunum assessed as half life measured up to 12 hrs by HPLC analysis; type: ADME, tissue-based
[13] = Metabolic stability in DSS-induced C57BL/6 mouse colon assessed as half life measured up to 12 hrs by HPLC analysis; type: ADME, tissue-based
[14] = Metabolic stability in DSS-induced C57BL/6 inflammatory mouse model colonic flora homogenate assessed as half life measured up to 12 hrs by HPLC analysis; type: ADME; settings: C57BL/6, mouse
[15] = Stability in human Caco-2 cells homogenate assessed as half life measured up to 12 hrs by HPLC analysis; type: ADME, cell-based; settings: Caco-2 cell homogenate
[16] = target: T1, Solute carrier family 15 member 1 (Homo sapiens, UniProt P46059); experiment: Substrate activity at PEPT1 in human Caco-2 cells assessed as inhibition of Gly-Sar substrate uptake by UPLC-MS/MS analysis; type: cell-based; settings: for inhibition (INH): human, caco-2
T1 sequence (P46059 whole entry): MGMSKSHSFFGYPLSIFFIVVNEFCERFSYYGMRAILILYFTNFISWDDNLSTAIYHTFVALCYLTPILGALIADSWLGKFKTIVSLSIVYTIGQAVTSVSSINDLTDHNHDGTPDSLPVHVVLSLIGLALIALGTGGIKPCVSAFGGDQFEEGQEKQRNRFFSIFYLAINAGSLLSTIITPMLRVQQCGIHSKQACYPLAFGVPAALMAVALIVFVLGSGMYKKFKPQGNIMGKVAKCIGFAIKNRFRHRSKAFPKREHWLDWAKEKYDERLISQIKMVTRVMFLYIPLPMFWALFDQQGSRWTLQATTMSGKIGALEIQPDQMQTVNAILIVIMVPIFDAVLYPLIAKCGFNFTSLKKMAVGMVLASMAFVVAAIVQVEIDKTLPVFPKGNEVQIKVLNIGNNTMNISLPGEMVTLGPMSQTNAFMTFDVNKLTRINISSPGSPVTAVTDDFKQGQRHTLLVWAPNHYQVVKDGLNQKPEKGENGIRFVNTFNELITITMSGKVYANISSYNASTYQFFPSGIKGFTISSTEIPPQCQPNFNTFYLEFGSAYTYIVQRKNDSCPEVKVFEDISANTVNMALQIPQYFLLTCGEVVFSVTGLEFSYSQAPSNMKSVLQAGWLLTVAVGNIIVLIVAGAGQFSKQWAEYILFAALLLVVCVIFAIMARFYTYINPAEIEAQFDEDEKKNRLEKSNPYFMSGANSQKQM

[17] = AUC (0 to 6 hrs) in DSS-induced colitis C57BL/6 mouse model at 25 mg/kg, po measured up to 6 hrs by UPLC-MS/MS analysis; type: ADME, organism-based; design: route oral, dose 25 mg/kg, time <=6; settings: in vivo
[18] = Cmax in DSS-induced colitis C57BL/6 mouse model at 25 mg/kg, po measured up to 6 hrs by UPLC-MS/MS analysis; type: ADME, organism-based; design: route oral, dose 25 mg/kg, time <=6; settings: in vivo
[19] = Tmax in DSS-induced colitis C57BL/6 mouse model at 25 mg/kg, po measured up to 6 hrs by UPLC-MS/MS analysis; type: ADME, organism-based; settings: in vivo
[20] = tested on: Mus musculus; experiment: Anti-colitis activity against DSS-induced colitis in C57BL/6 mouse model assessed as assessed as recovery of body weight at 25 mg/kg, po administered via gavage twice daily for 10 days; type: functional, organism-based; settings: time 10.0 day
[21] = tested on: Mus musculus; experiment: Anti-colitis activity against DSS-induced colitis in C57BL/6 mouse model assessed as increase in colon length at 25 mg/kg, po administered via gavage twice daily for 10 days; type: functional, organism-based; settings: time 10.0 day
[22] = target: T2, Solute carrier family 15 member 1 (Rattus norvegicus, UniProt P51574); experiment: Substrate activity in PEPT1 in Sprague-Dawley rat jejunum assessed as fold increase in effective permeability at 5 mM measured up to 60 mins in presence of Gly-Sar by HPLC analysis relative to its enantiomers; type: ADME, tissue-based; settings: 1 h, 5000 µM
T2 sequence (P51574 whole entry): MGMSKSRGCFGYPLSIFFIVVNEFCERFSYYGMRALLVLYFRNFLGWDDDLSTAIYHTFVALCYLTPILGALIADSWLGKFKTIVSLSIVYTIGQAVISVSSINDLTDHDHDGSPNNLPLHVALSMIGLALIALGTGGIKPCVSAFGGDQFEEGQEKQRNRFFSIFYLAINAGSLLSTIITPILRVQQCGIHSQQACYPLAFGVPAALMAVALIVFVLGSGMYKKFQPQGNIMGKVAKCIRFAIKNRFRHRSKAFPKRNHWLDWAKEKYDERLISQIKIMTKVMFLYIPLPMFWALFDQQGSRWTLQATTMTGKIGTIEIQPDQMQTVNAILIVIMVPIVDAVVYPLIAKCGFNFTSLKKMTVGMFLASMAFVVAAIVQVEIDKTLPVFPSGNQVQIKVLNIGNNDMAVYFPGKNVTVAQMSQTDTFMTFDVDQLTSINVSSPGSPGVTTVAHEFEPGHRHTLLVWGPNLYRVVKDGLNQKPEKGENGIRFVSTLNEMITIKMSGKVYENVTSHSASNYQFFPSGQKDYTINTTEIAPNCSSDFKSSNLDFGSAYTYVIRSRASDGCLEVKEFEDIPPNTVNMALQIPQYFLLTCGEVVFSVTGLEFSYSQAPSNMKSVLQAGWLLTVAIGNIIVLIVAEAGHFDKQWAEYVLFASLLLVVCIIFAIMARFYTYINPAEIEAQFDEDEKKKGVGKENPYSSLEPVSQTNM

[23] = target: T1, Solute carrier family 15 member 1; experiment: Substrate activity at PEPT1 in human Caco-2 cells assessed as fold increase in drug uptake by UPLC-MS/MS analysis relative to its enantiomers; type: ADME, cell-based
[24] = target: T1, Solute carrier family 15 member 1; experiment: Substrate activity at PEPT1 in human Caco-2 cells assessed as fold reduction in drug uptake in presence of Gly-Sar by UPLC-MS/MS analysis relative to its enantiomers; type: ADME, cell-based
[25] = Apparent permeability across apical to basolateral side in human Caco-2 cells assessed as fold increase in permeability at 0.5 mM measured up to 60 mins by UPLC-MS/MS analysis relative to its enantiomers; type: ADME, cell-based; settings: caco-2, 1 h, 500 µM
[26] = tested on: Jejunum; experiment: Effective permeability in Sprague-Dawley rat jejunum assessed as fold increase in permeability at 5 mM measured up to 60 mins by HPLC analysis relative to its enantiomers; type: ADME, tissue-based; settings: 1 h, 5000 µM
[27] = tested on: Mus musculus; experiment: Anti-colitis activity against DSS-induced colitis in C57BL/6 mouse model assessed as fold decrease in disease activity index at 25 mg/kg, po administered via gavage twice daily for 10 days relative to control; type: functional; settings: time 10 day

Compound | half-life [1] [h] | half-life [2] [h] | half-life [3] [h] | half-life [4] [h] | half-life [5] [h] | half-life [6] [h] | half-life [7] [h] | half-life [8] [h] | half-life [9] [h] | half-life [10] [h] | half-life [11] [h] | half-life [12] [h] | half-life [13] [h] | half-life [14] [h] | half-life [15] [h] | AUC [17] [microM/L.hr] | Cmax [18] [µM] | Tmax [19] [h] | Activity [20] | Activity [21] | also measured
O=C(N[C@H](CO)C(=O)O)[C@@H]1C[C@H](O)CN1 | > 12 | > 12 | > 12 | > 12 | > 12 | > 12 | > 12 | > 12 | > 12 | > 12 | > 12 | > 12 | > 12 | > 12 | > 12 | 49.92 | 22.1 | 4 | inactive | inactive | inhibition (INH) [16]: Not Active
O=C(O)[C@H](CO)NC(=O)[C@H]1C[C@H](O)CN1 | > 12 | > 12 | > 12 | > 12 | > 12 | > 12 | > 12 | > 12 | > 12 | > 12 | > 12 | > 12 | > 12 | > 12 | > 12 | 8.55 | 4.01 | 2 | inactive | inactive | fold change (FC) [22]: 6.2; IC50 [16]: 9.6 mM; fold change (FC) [23]: 3.3; fold change (FC) [24]: 3.4; fold change (FC) [25]: 6.3; fold change (FC) [26]: 7.3
O=C(O)[C@H](CO)NC(=O)[C@@H]1C[C@H](O)CN1 | > 12 | > 12 | > 12 | > 12 | > 12 | > 12 | 0.39 | > 12 | 1.22 | 0.51 | > 12 | 0.35 | > 12 | 1.15 | > 12 | 1.62 | 1.05 | 2 | inactive | inactive | fold change (FC) [22]: 4; IC50 [16]: 9.8 mM; fold change (FC) [23]: 3.3; fold change (FC) [24]: 3.4; fold change (FC) [25]: 6.3; fold change (FC) [26]: 7.3
O=C(O)[C@@H](CO)NC(=O)[C@H]1C[C@H](O)CN1 | > 12 | > 12 | > 12 | > 12 | > 12 | > 12 | > 12 | > 12 | > 12 | > 12 | > 12 | > 12 | > 12 | > 12 | > 12 | 50.73 | 22.9 | 4 | Active | Active | inhibition (INH) [16]: Not Active; fold change (FC) [23]: 3.3; fold change (FC) [27]: 1.5
O=C(O)[C@H](CO)NC(=O)[C@H]1C[C@@H](O)CN1 | > 12 | > 12 | > 12 | > 12 | > 12 | > 12 | > 12 | > 12 | > 12 | > 12 | > 12 | > 12 | > 12 | > 12 | > 12 | 44.55 | 22.7 | 4 | inactive | inactive | inhibition (INH) [16]: Not Active
